PMC7580737, “Synthesis, in vitro inhibitory activity, kinetic study and molecular docking of novel N-alkyl–deoxynojirimycin derivatives as potential α-glucosidase inhibitors” (Journal of Enzyme Inhibition and Medicinal Chemistry, 2020)
Read-outs that look alike come from different tables or passages of the source.

Assays:
[1] = target: α-glucosidase (EC 3.2.1.20) (Saccharomyces cerevisiae, UniProt P53341); test: biochemical; type: biochemical
[2] = target: T1, α-glucosidase (Saccharomyces cerevisiae, UniProt P53341); test: Kinetic study of α-glucosidase inhibition (Lineweaver–Burk plots); type: biochemical; conditions: for Type of inhibition: Lineweaver–Burk plots: Vmax not affected, Km increased; for Ki: determined by Lineweaver–Burk plots
T1 construct: purchased Sigma-Aldrich
T1 sequence (P53341 whole entry): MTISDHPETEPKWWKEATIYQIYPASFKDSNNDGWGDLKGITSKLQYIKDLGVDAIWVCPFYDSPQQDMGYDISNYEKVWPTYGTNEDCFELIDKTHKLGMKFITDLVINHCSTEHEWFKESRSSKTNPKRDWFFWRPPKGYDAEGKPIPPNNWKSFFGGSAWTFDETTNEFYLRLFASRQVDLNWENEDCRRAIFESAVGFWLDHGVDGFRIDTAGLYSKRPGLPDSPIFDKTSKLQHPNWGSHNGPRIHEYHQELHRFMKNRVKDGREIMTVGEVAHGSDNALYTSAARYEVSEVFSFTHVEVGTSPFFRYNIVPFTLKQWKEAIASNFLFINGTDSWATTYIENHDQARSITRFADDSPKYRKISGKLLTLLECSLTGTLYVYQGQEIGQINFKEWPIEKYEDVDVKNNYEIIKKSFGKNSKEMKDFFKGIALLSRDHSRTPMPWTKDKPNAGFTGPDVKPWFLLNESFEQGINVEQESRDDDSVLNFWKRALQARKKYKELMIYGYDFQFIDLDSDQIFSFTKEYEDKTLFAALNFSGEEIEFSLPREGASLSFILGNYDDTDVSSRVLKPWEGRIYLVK
Procedure: The type of inhibition and value of Ki were determined by Lineweaver–Burk plots.
The 10 µL of enzyme solution (1 U/mL) was incubated with different concentrations of compound 43 (0.00 mM,0.012 mM, 0.02 mM, 0.04 mM), 40 (0.00 mM, 0.06 mM, 0.10 mM, 0.20 mM)and 34 (0.00 mM, 0.30 mM, 0.50 mM, 1.00 mM) for 20 min at 37 °C, then added different concentrations of substrate (1 mM, 0.9 mM, 0.75 mM, 0.6 mM, 0.45 mM, 0.3 mM, 0.25 mM), and change in absorbance was measured for 20 min at 405 nm by using spectrophotometer.

[3] = phosphate buffer pH 6.8, 37 °C, PNPG substrate, mean ± SD, at least three experiments, read-out: IC50 (α-glucosidase inhibitory activity)

Sequence of α-glucosidase (EC 3.2.1.20) (P53341 whole entry): as above

| IC50 [1, 3] | SMILES | IC50 [1] | melting point | further results |
| --- | --- | --- | --- | --- |
|  | O=C(/C=C/c1ccccc1)OCCN1C[C@H](O)[C@@H](O)[C@H](O)[C@H]1CO [Compound 25, 2-(3,4,5-Trihydroxy-2-(hydroxymethyl)piperidin-1-yl) ethyl cinnamate] | 1094 ± 1.8 µM |  |  |
|  | O=C(/C=C/c1ccccc1)OCCCN1C[C@H](O)[C@@H](O)[C@H](O)[C@H]1CO [Compound 26, 3-(3,4,5-Trihydroxy-2-(hydroxymethyl)piperidin-1-yl) ethyl cinnamate] | 1099 ± 1.1 µM |  |  |
|  | O=C(/C=C/c1ccccc1)OCCCCCCN1C[C@H](O)[C@@H](O)[C@H](O)[C@H]1CO [Compound 29] | 976.5 ± 0.7 µM |  |  |
|  | COC(=O)/C=C/c1ccc(OCCN2CC(O)C(O)C(O)C2CO)cc1 (stereo not drawn) [Compound 30, Methyl(E)-3-(4-(2-(3,4,5-trihydroxy-2-(hydroxymethyl)piperidin-1-yl)ethoxy)phenyl) acrylate] | 1272.2 ± 1.2 µM | 185 to 187 °C |  |
| > 2000 µM | COC(=O)C=Cc1ccc(OCCCN2CC(O)C(O)C(O)C2CO)cc1 (stereo not drawn) [Compound 31] |  | 104 to 107 °C |  |
|  | COC(=O)C=Cc1ccc(OCCCCN2CC(O)C(O)C(O)C2CO)cc1 (stereo not drawn) [Compound 32] | 667 ± 1.6 µM | 157 to 160 °C |  |
|  | COC(=O)C=Cc1ccc(OCCCCCN2CC(O)C(O)C(O)C2CO)cc1 (stereo not drawn) [Compound 33] | 602.3 ± 1.2 µM | 85 to 86 °C |  |
|  | COC(=O)C=Cc1ccc(OCCCCCCN2CC(O)C(O)C(O)C2CO)cc1 (stereo not drawn) [Compound 34] | 417 ± 0.14 µM | 110 to 113 °C | Type of inhibition [2]: competitive inhibitors; Ki [2]: 150 µM |
|  | CCOC(=O)/C=C/c1ccc(OCCN2CC(O)C(O)C(O)C2CO)c(OC)c1 (stereo not drawn) [Compound 35, Ethyl(E)-3-(3-methoxy-4-(2-(3,4,5-trihydroxy-2-(hydroxymethyl)piperidin-1-yl)ethoxy)phenyl)acrylate] | 966.2 ± 0.4 µM | 146 to 148 °C |  |
| > 2000 µM | CCOC(=O)C=Cc1ccc(OCCCN2CC(O)C(O)C(O)C2CO)c(OC)c1 (stereo not drawn) [Compound 36] |  |  |  |
| > 2000 µM | CCOC(=O)C=Cc1ccc(OCCCCN2CC(O)C(O)C(O)C2CO)c(OC)c1 (stereo not drawn) [Compound 37] |  |  |  |
| > 2000 µM | CCOC(=O)C=Cc1ccc(OCCCCCN2CC(O)C(O)C(O)C2CO)c(OC)c1 (stereo not drawn) [Compound 38] |  |  |  |
| > 2000 µM | CCOC(=O)C=Cc1ccc(OCCCCCCN2CC(O)C(O)C(O)C2CO)c(OC)c1 (stereo not drawn) [Compound 39, Ethyl(E)-3-(3-methoxy-4-(6-(3,4,5-trihydroxy-2-(hydroxymethyl)piperidin-1-yl)ethoxy)phenyl)acrylate] |  |  |  |
|  | O=C(/C=C/c1ccccc1)c1ccccc1OCCN1CC(O)C(O)C(O)C1CO (stereo not drawn) [Compound 40, (E)-3-phenyl-1-(2-(2-(3,4,5-trihydroxy-2-(hydroxymethyl)piperidin-1-yl)ethoxy)phenyl)prop-2-en-1-one] | 160.5 ± 0.6 µM |  | fold more active than acarbose [1]: around 5 fold; Type of inhibition [2]: competitive inhibitors; Ki [2]: 52 µM |
|  | O=C(C=Cc1ccccc1)c1ccccc1OCCCCCN1CC(O)C(O)C(O)C1CO (stereo not drawn) [Compound 43] | 30 ± 0.6 µM |  | fold more active than 1-DNJ [1]: ~7 fold; fold more active than acarbose [1]: ~27 fold; Type of inhibition [2]: competitive inhibitors; Ki [2]: 10 µM |
